We go through eight compounds from patent publication US20260250275A1, “HETEROARYL ENHANCERS OF THE PARTICULATE GUANYLYL CYCLASE RECEPTOR A” (University of Florida Research Foundation, Incorporated, priority 2022, published 2026).

Like-named read-outs stand apart in the source and are kept apart here. Bounds are passed on as bounds.

In one data set the target is T1, human GC-A (Homo sapiens, UniProt P16066).
T1 construct: host or cells: HEK293
T1 sequence (P16066 33-1061): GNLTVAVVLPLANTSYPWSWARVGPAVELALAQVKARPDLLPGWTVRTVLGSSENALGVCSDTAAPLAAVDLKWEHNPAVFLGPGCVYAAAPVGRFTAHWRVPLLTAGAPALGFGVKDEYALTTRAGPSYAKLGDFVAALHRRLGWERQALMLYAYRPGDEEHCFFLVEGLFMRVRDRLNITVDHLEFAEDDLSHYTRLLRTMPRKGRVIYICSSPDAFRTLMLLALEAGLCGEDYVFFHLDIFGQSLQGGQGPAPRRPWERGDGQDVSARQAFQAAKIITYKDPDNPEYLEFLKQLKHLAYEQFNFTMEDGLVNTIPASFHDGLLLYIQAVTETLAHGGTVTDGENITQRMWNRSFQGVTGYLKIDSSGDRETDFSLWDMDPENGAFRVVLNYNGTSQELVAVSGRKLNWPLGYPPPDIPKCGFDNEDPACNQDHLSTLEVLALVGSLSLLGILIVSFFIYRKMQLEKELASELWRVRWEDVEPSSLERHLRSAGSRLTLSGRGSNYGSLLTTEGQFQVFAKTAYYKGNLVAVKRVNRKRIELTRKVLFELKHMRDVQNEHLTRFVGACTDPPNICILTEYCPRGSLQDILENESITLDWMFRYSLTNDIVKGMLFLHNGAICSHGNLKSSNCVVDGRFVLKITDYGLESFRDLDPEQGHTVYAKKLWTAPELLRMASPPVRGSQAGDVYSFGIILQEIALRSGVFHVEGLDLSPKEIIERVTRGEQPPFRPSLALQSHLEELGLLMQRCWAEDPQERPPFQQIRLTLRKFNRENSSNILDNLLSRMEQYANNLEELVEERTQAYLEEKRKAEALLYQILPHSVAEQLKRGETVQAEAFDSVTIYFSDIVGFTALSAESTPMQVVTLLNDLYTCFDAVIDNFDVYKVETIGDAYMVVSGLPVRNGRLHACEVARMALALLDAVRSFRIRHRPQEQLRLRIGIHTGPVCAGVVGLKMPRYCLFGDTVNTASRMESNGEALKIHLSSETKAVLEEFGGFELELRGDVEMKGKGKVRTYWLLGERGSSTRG
T1 sequence (P01160 124-151 partner limits assumed): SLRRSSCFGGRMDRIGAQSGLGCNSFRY
The experiment in a line: cGMP potentiation (HTRF) in human GC-A overexpressing HEK293 cells with EC20 ANP. Conditions: for LLE (lipophilic ligand efficiency = EC50−cLogP): calculated from EC50 and cLogP; for Emax: HEK293, 100% = saturating ANP (10 nM), 0% = EC20 ANP. The class given is cell-based.

For data set [1] the following is noted: cited from earlier work.
Setting [2] is: potentiation of cGMP in presence of EC20 ANP (20 pM), Tables 1-7, read-out: EC50.

Take `CN(C)CCN1CCCCC1C(=O)Nc1nc2c(F)cc(F)cc2s1` (centres unmarked) [JUF-S2-003]: the “LLE (lipophilic ligand efficiency = EC50−cLogP)” value at human GC-A was 2.51.

As to `COc1ccc(-c2csc(NC(=O)C3CCCN(CCN(C)C)C3)n2)cc1` (centres unmarked) [JUF-S7-013], the “LLE (lipophilic ligand efficiency = EC50−cLogP)” value at human GC-A is recorded as 2.69.

What is called Emax is the maximal effect, on the per cent scale that the assay sets. Usually EC50 stands for the concentration giving half of the maximal effect. As for `CN(C)C1CCN(CC(=O)Nc2nc3c(F)cc(F)cc3s2)CC1` [JUF-S10-004], the maximal effect (Emax) on human GC-A was in the range of 91 to 96%. The EC50 on human GC-A (setting [2]) lay in the range of 1500 to 2600 nM.

As for `N[C@@H]1CCCC(C(=O)Nc2nc3c(F)cc(F)cc3s2)C1` (some centres unmarked) [JUF-S12-001A], the Emax at human GC-A fell in the range of 87 to 97%.

In the case of `N[C@@H]1CCC[C@H](C(=O)Nc2nc3c(F)cc(F)cc3s2)C1` [JUF-S12-001A], on human GC-A (setting [2]), the EC50 lay within 700 to 3100 nM.

In the case of `CN(C)CCN[C@@H]1CCC[C@@H](C(=O)Nc2nc3c(F)cc(F)cc3s2)C1` [JUF-S12-002], the EC50 on human GC-A (setting [2]) was above 5000 nM.

As for `CN(C)CCN1CCCC(C(=O)Nc2nc3c(F)cc(F)cc3s2)C1` (centres unmarked) [MCUF 651, reference compound], the “Emax values of internal control (FIG. 2)” value at human GC-A (titrated on each 384-test plate) is listed as 80-100 % response. For the same compound, the EC50 at human GC-A (titrated on each 384-test plate, read-out: Acceptable EC50 values of internal control (FIG. 2)) fell in the range of 200 to 600 nM.

As to `CN(C)CCN1CCCC(C(=O)Nc2nc3c(F)cc(F)cc3s2)C1` (centres unmarked) [MCUF-651], the Activity in vivo result in data set [1] is recorded as “active in vivo”. Moreover, the Oral bioavailability result in data set [1] (in vivo, po) was “orally bioavailable”.
